Measured values taken from ChEMBL document CHEMBL1201862, “PubChem BioAssay data set” (2004).
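The compound was tested at five concentrations on cells cultured in 96-well plates, with a 48-hour exposure period. GI50: concentration for 50% inhibition of growth.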 The source made the active and inactive calls. No stated cut-off is given here; in the data, active = GI50 up to about 1.1 µM and inactive = higher.

Columns and labels:
Assay in all cases: growth of human tumour cells (NCI), 48 h
HOP-92 = system: HOP-92
NCI-H460 = system: NCI-H460
DU-145 = system: DU-145
MOLT-4 = system: MOLT-4
M14 = system: M14
SK-MEL-2 = system: SK-MEL-2
UACC-257 = system: UACC-257
HT-29 = system: HT-29
OVCAR-5 = system: OVCAR-5
SNB-75 = system: SNB-75
ACHN = system: ACHN
A549 = system: A549
NCI-H226 = system: NCI-H226
U-251 = system: U-251
KM12 = system: KM12
OVCAR-4 = system: OVCAR-4
SF-268 = system: SF-268
SN12C = system: SN12C
PC-3 = system: PC-3
786-0 = system: 786-0

Row | Structure (SMILES) | GI50 (HOP-92) | GI50 (NCI-H460) | GI50 (DU-145) | GI50 (MOLT-4) | GI50 (M14) | GI50 (SK-MEL-2) | GI50 (UACC-257) | GI50 (HT-29) | GI50 (OVCAR-5) | GI50 (SNB-75) | GI50 (ACHN) | GI50 (A549) | GI50 (NCI-H226) | GI50 (U-251) | GI50 (KM12) | GI50 (OVCAR-4) | GI50 (SF-268) | GI50 (SN12C) | GI50 (PC-3) | GI50 (786-0)
1 | O=[N+]([O-])c1ccccc1S(=O)(=O)c1ccccc1[N+](=O)[O-] | 32.4 µM (inactive) | > 100 µM (inactive) | > 100 µM (inactive) | > 100 µM (inactive) | > 100 µM (inactive) | > 100 µM (inactive) | > 100 µM (inactive) | > 100 µM (inactive) | > 10 µM (inactive) | 21 µM (inactive) | > 90.8 µM (inactive) | > 56.2 µM (inactive) | > 79.3 µM (inactive) | 28.9 µM (inactive) | > 72.3 µM (inactive) | > 100 µM (inactive) | 31.7 µM (inactive) | > 100 µM (inactive) | > 100 µM (inactive) | 64.6 µM (inactive)
2 | O=[N+]([O-])C(=C(\Cl)NCCO)/C(Cl)=C(/Cl)Br | 1.56 µM (inactive) | 2.7 µM (inactive) | 7.74 µM (inactive) | 0.481 µM (active) | 1.57 µM (inactive) | 1.03 µM (active) | 1.87 µM (inactive) | 1.83 µM (inactive) | 4 µM (inactive) | 3.37 µM (inactive) | 2.75 µM (inactive) | 7.91 µM (inactive) | 6.73 µM (inactive) | 2.04 µM (inactive) | 5.57 µM (inactive) | 0.716 µM (active) | 1.62 µM (inactive) | 1.98 µM (inactive) | 2.62 µM (inactive) | 1.19 µM (inactive)
3 | COc1ccc(-n2c(=O)n(C)c(=O)n2-c2c(C)c(C)c(C)c(C)c2C)cc1 | > 100 µM (inactive) | > 100 µM (inactive) | > 100 µM (inactive) | > 100 µM (inactive) | > 100 µM (inactive) | > 100 µM (inactive) | > 100 µM (inactive) | > 100 µM (inactive) | > 100 µM (inactive) | > 100 µM (inactive) | > 100 µM (inactive) | > 100 µM (inactive) | > 100 µM (inactive) | > 100 µM (inactive) | > 100 µM (inactive) | > 100 µM (inactive) | > 100 µM (inactive) | > 100 µM (inactive) | > 100 µM (inactive) | > 100 µM (inactive)
4 | O=C(CC(c1ccccc1)c1c(O)c2ccccc2oc1=O)c1ccccc1 (stereo not given) | > 44.3 µM (inactive) | 65.5 µM (inactive) | > 89.1 µM (inactive) | 84.9 µM (inactive) | > 100 µM (inactive) | > 92.3 µM (inactive) | > 83.9 µM (inactive) | > 94.8 µM (inactive) | > 100 µM (inactive) | > 47.5 µM (inactive) | 98.4 µM (inactive) | 54.6 µM (inactive) | 71.9 µM (inactive) | > 100 µM (inactive) | > 100 µM (inactive) | 56.1 µM (inactive) | > 100 µM (inactive) | > 87.9 µM (inactive) | > 93.3 µM (inactive) | > 100 µM (inactive)
5 | CCCc1cc(-c2ccc(-c3cc(CCC)c(C=O)[nH]3)s2)[nH]c1C=O | 27.5 µM (inactive) | 5.2 µM (inactive) | > 100 µM (inactive) | 2.9 µM (inactive) | 7.08 µM (inactive) | 22 µM (inactive) | > 100 µM (inactive) | 2.18 µM (inactive) | 15.1 µM (inactive) | > 100 µM (inactive) | > 26.7 µM (inactive) | 4.42 µM (inactive) | > 100 µM (inactive) | 61.1 µM (inactive) | > 27.9 µM (inactive) | 47.4 µM (inactive) | > 84.7 µM (inactive) | > 69.2 µM (inactive) | 26.5 µM (inactive) | 14.4 µM (inactive)
6 | Cc1cc(=O)oc2cc(OC(=O)Nc3ccccc3)ccc12 | 29.3 µM (inactive) | 84.7 µM (inactive) | 76.9 µM (inactive) | 40.8 µM (inactive) | > 100 µM (inactive) | > 100 µM (inactive) | > 100 µM (inactive) | > 100 µM (inactive) | > 100 µM (inactive) | > 100 µM (inactive) | 74 µM (inactive) | 62.1 µM (inactive) | 73.1 µM (inactive) | 86.3 µM (inactive) | 32.4 µM (inactive) | > 100 µM (inactive) | > 100 µM (inactive) | 74.6 µM (inactive) | 48.8 µM (inactive) | > 100 µM (inactive)
7 | CC1(C)C(C(=O)OC(C#N)c2cccc(OCC(=O)OCc3ccccc3)c2)C1(C)C (stereo not given) | > 100 µM (inactive) | > 100 µM (inactive) | > 100 µM (inactive) | 18 µM (inactive) | 48.6 µM (inactive) | 20.4 µM (inactive) | 55.6 µM (inactive) | > 100 µM (inactive) | > 100 µM (inactive) | 41.5 µM (inactive) | > 100 µM (inactive) | > 100 µM (inactive) | > 100 µM (inactive) | > 100 µM (inactive) | > 100 µM (inactive) | > 100 µM (inactive) | > 100 µM (inactive) | > 100 µM (inactive) | > 100 µM (inactive) | > 100 µM (inactive)
